Data set [1] concerns the target T1, MDM2 (Homo sapiens, UniProt Q00987). As to the kind of experiment: Immunoblot with the intracellular proteasome system blocked by a proteasome inhibitor. Type of data set: cell-based. The following applies: 0.5–2 μΜ carfilzomib with PROTAC. As for the experimental part: After discarding the medium and washing the cells twice with cold dPBS, the cells were collected using a scraper and lysed using RIPA buffer (GenDEPOT, R4200‐010) containing protease and phosphatase inhibitors (GenDEPOT, P3200‐001). The collected samples were centrifuged at 13 200 rpm for 10 min at 4 °C, and the supernatant containing total protein was collected. SDS‐PAGE gels (10–12%) were prepared, and protein samples were mixed with 5X loading buffer containing reducing agent (Biosesang, S2002) and heated at 98 °C for 5 min. Equal amounts of protein samples were loaded onto a gel, separated by electrophoresis, and transferred onto nitrocellulose membranes using a Dry Transfer Stacks Kit (Invitrogen, IB23001). The membrane was blocked with 5% nonfat milk in 1X TBST for 1 h at room temperature to prevent nonspecific binding. The membranes were incubated with primary antibodies specific to the target proteins overnight at 4 °C with gentle shaking. The next day, the membrane was washed three times with TBST at 10 min intervals to remove unbound primary antibodies. The membranes were incubated with secondary antibodies (anti‐rabbit and anti‐mouse) conjugated to horseradish peroxidase (HRP) for 1 h at room temperature. The membrane was washed three times with 1X TBST at 10 min intervals to remove unbound secondary antibodies. […]
Target sequence in this assay (Q00987 whole entry, species assumed): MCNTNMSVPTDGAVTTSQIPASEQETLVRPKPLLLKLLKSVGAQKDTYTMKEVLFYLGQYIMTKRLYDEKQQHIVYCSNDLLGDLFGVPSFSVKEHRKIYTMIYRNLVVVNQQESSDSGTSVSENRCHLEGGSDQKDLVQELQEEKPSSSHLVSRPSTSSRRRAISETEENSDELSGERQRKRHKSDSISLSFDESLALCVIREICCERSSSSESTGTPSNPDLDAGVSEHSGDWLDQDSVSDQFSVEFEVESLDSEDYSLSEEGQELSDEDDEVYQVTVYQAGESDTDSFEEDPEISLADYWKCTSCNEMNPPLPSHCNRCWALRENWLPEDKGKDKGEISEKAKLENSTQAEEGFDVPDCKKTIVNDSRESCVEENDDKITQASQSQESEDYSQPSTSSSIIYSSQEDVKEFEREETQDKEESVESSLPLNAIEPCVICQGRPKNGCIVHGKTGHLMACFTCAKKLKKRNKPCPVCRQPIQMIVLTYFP
On the technique in general: In western blotting, separated proteins are transferred to a membrane and probed.

The next data set relates to EGFP‐MDM2. As to the kind of experiment: EGFP-MDM2 fluorescence / live imaging degradation assay. Type of data set: cell-based. How it is done: HeLa cells were cultured in DMEM (Welgene, LM001‐05) supplemented with 10% FBS (Welgene, S001‐07). For transient transfection, the cells were seeded at ≈70% confluence. The following day, transfection was performed using Lipofectamine 3000 (Invitrogen, L3000015) for 24 h according to the manufacturer's protocol. The cells were transfected with 100 ng of EGFP‐MDM2 per well in the 96‐well plate and were transfected with 2 µg of MDM2 WT and 2 µg of HA‐ubiquitin, total 4 µg per well in the 6‐well plate.
To construct the EGFP‐MDM2 plasmid DNA, MDM2 WT was amplified by PCR using specific primers. The PCR products were digested with BamH1 and EcoR1 to generate compatible ends. The plasmid backbone, EGFP‐C1, previously digested with the same enzyme, was ligated into the digested PCR product using T4 ligase (Biolabs, M0202S). The resulting plasmid construct was confirmed using restriction enzyme digestion and DNA sequencing. MDM2 WT (#16233) and HA‐ubiquitin (#18712) were purchased from Addgene (used primer sequences, see Table S2, Supporting Information).
Real‐time Live cell imaging (phase contrast, EGFP fluorescence) was performed to monitor EGFP‐MDM2 intensity at 7 min intervals after compound treatment using Cytation5 (Agilent) laser autofocus conditions to capture EGFP fluorescence to assess intensity. For fluorescence imaging, the cells were fixed using 4% PFA and washed three times with 1X dPBS. Fluorescence imaging was performed using the Cytation5. The intensity of fluorescence was assessed by tracking the fluorescence of individual cells in each image using the Time‐lapse analyzer or ROI measure feature of the Fiji ImageJ software (Version 1.54 h, USA).

The target in data set [2] is T1, MDM2. The experiment in a line: MDM2 degradation by western blot in hBMSCs. Type of data set: cell-based. Also on record: endogenous in cells; host or cells: hBMSCs. Particulars: for MDM2 degradation (western blot) / decrease in MDM2 levels compared to the basal level: 10 μΜ for 1 h. How it is done:
Human Bone Marrow‐derived Mesenchymal Stem Cells (hBMSCs) were provided by Professor Lee's laboratory, and cells from passages four to nine were used for all experiments. hBMSCs were cultured in alpha‐minimum essential medium (Welgene, LM008‐01) supplemented with 10% Fetal Bovine Serum (FBS) (Gibco, US origin, 16000–044) and 1% penicillin/streptomycin (Gibco, 15140‐122).
After discarding the medium and washing the cells twice with cold dPBS, the cells were collected using a scraper and lysed using RIPA buffer (GenDEPOT, R4200‐010) containing protease and phosphatase inhibitors (GenDEPOT, P3200‐001). The collected samples were centrifuged at 13 200 rpm for 10 min at 4 °C, and the supernatant containing total protein was collected. SDS‐PAGE gels (10–12%) were prepared, and protein samples were mixed with 5X loading buffer containing reducing agent (Biosesang, S2002) and heated at 98 °C for 5 min. Equal amounts of protein samples were loaded onto a gel, separated by electrophoresis, and transferred onto nitrocellulose membranes using a Dry Transfer Stacks Kit (Invitrogen, IB23001). The membrane was blocked with 5% nonfat milk in 1X TBST for 1 h at room temperature to prevent nonspecific binding. The membranes were incubated with primary antibodies specific to the target proteins overnight at 4 °C with gentle shaking. The next day, the membrane was washed three times with TBST at 10 min intervals to remove unbound primary antibodies. The membranes were incubated with secondary antibodies (anti‐rabbit and anti‐mouse) conjugated to horseradish peroxidase (HRP) for 1 h at room temperature. The membrane was washed three times with 1X TBST at 10 min intervals to remove unbound secondary antibodies. After washing, a chemiluminescent substrate (ECL, Millipore, WBULS0100) was applied to the membrane to visualize protein bands using a chemiluminescence detector (for the antibodies used, see Table S2, Supporting Information).
The DC50 and Dmax values were calculated by western blot band quantification according to compound concentrations. The quantification value was normalized to the value relative to the untreated group and calculated using the sigmoidal dose‐response (variable slope) equation in GraphPad Prism.
Target sequence in this assay (Q00987 whole entry): as the sequence (Q00987 whole entry, species assumed) above

Data set [3] concerns the target T1, MDM2. As to the kind of experiment: Microscale thermophoresis (MST) binding assay. Also on record: made in house; host or cells: E. coli BL21 (DE3). Particulars: His-Tag MDM2, n = 3, read-out: dissociation constant (Kd). Background: In MST a laser heats a spot of the sample, and binding alters the fluorescence response.
Target sequence in this assay (Q00987 whole entry, species assumed): as above
Procedure: E. coli BL21 (DE3) competent cells transformed with pSPEL870 were used to express MDM2 protein.^[ [27] ^] The recombinant strain was cultured in 500 mL 2XYT at 37 °C until the optical density (OD600 ) reached 0.5. Protein expression was induced by adding 0.2 mM isopropyl β‐D‐1‐thiogalactopyranoside (IPTG; Bioshop, Canada) at 20 °C overnight. […] The protein was purified using Ni‐NTA resin (Qiagen, Germany), according to the manufacturer's protocol. The purified protein was buffer exchanged with phosphate‐buffered saline (PBS, pH 7.4) using a centrifugal filter unit (MWCO: 10 K; Merck Millipore, USA). The protein was stored at –20 °C in PBS with 20% glycerol and 1 mM dithiothreitol (DTT).
The His‐Tag MDM2 protein was labeled using a His‐Tag Labeling Kit RED‐tris‐NTA second Generation (NanoTemper, MO‐L018) according to the manufacturer's instructions. […] The final mixtures were transferred to capillaries (NanoTemper, MO‐K022) and the samples were measured using a Monolith NT.115Pico (NanoTemper) instrument (auto LED power; medium MST power). […] The signals were represented as normalized changes in fluorescence (Fnorm ) upon ligand binding. Baseline‐corrected normalized fluorescence (DFnorm ) was obtained from Fnorm values using MO Affinity Analysis, and the dissociation constants (Kd ) were determined by curve fitting (variable slope model) using GraphPad Prism 10.
Data set [4] has as its system hBMSCs. As to the kind of experiment: Cell viability / apoptosis of hBMSCs. It counts as cell-based, human.
Data set [5] deals with hBMSCs. As to the kind of experiment: Calcium deposit staining (X-Rhod-1) in hBMSCs. The following applies: X‐Rhod‐1, p < 0.05. Type of data set: cell-based, human. As for the experimental part: hBMSCs were differentiated in the presence of the 10 mM β‐glycerophosphate (Sigma‐Aldrich, G9422) and 50 µM ascorbic acid (Sigma‐Aldrich, A4403) in culture medium for 10 d. Subsequently, the cells were fixed with 4% PFA for 30 min, followed by two washes with Mg^2+‐and Ca^2+‐free dPBS (Welgene, LB‐204). To stain for calcium, X‐Rhod‐1 (Invitrogen, X14210) dye was diluted in Mg^2+‐and Ca^2+‐free dPBS at a concentration of 1 µM and incubated at room temperature in the dark for 1 h. The cells were then washed five times with Mg^2+‐and Ca^2+‐free dPBS at 10 min intervals. The samples were observed under a Cytation5 microscope (Agilent Technologies) at a wavelength of 595 nm.

Another data set deals with osteocalcin (OCN). As to the kind of experiment: Immunostaining of osteogenic markers in hBMSCs. Type of data set: cell-based, human. The following applies: 10 µM.
In data set [6] the test system is OVX-induced osteoporosis model. As to the kind of experiment: Ovariectomy (OVX)-induced osteoporosis mouse model. It counts as in vivo, C57BL6 mice. Particulars: OVX mice. As for the experimental part:
-Establishment of Ovariectomized Mice Model: The experimental protocols were approved by the IACUC (Approval code: IACUC230118) at the CHA Laboratory Animal Research Center. The mice were handled in compliance with the Guidelines for the Care and Use of Animals at the institution. Female C57BL6 mice (seven weeks old (n = 57)) were randomly divided into six groups (n = 8-10): […] All surgeries and pump implantations were performed under aseptic conditions. Mice were anesthetized before removing both sides of the ovaries. In the fourth week following surgery, an Alzet osmotic pump (Durect Corp, #1004) was implanted in the mice. […] Images were acquired at an effective pixel size of 50 μm (130 kV and 60 μA radiation source; 1.0 mm aluminum filter). Subsequently, 3D images were reconstructed from the 2D X-ray projections by implementing the Feldkamp algorithm, and appropriate image corrections, including ring artifact correction, beam hardening correction, and fine-tuning, were processed using NRecon software (SkyScan 1173, Belgium). The dynamic image range (contrast limits) was determined at 0-0.3 in units of attenuation coefficient and was applied to all datasets for optimum image contrast. After acquisition and reconstruction of the datasets, images were first reoriented on each 3D plane using DataViewer software (SkyScan 1173, Belgium) to align the long axis of the femur parallel to the coronal and sagittal planes. Next, 3D morphometric analyses of the distal femur and body of the lumbar vertebrae were performed using CT-Analyzer software (SkyScan 1173, Belgium). Regarding the region of interest (ROI), this work analyzed the 1.5 mm […] trabecular bone of the distal femur metaphysis, excluding the growth plate. The ROIs were delineated using a freehand drawing tool while maintaining a […] clearance from the endosteal surface. […] A global threshold of 60 (1.01573 g cm^-3) was applied to all scans to extract a physiologically accurate representation of the trabecular bone phase. […] All quantitative and structural parameters followed the nomenclature and units recommended by the American Society for Bone and Mineral Research (ASBMR) Histomorphometry Nomenclature Committee. After data quantification,^[ [26b] ^] 3D rendered images were generated to visualize the analyzed regions using the marching cube method. -H&E staining: Following decalcification, the specimens were fixed in paraffin and longitudinally sliced to a thickness of 3 μm using a microtome. Subsequently, each sample was affixed to a slide and exposed to a temperature of 55 °C. […] The slides underwent a 1 min wash in flowing purified water and immersed in Harris hematoxylin-I for 5 min, followed by a 1 min wash under flowing tap water. Sections were briefly immersed in ammonia water for 30 s and washed with tap water for 3 min. Subsequently, the sections were stained with Eosin Y for 2 min and 30 s, followed by gradual drying in 95%-100% ethanol. Any residual stain was rinsed with distilled water and each section was mounted. -Masson's trichrome staining: Following deparaffinization and hydration, the sections underwent treatment with a mordant containing a 5% iron alum solution in a dry oven at 56 °C for 30 min. Sections were washed under running tap water for 5-6 min to remove picric acid. Sections were stained with Weigert's iron hematoxylin solution for 10 min, followed by rinsing with purified water. A 5 min staining with Biebrich scarlet-acid fuchsin solution ensued, succeeded by washing with purified water. The sections were immersed in a phosphomolybdic-phosphotungstic acid solution for 5 min. After discarding the solution, the sections were washed with distilled water. Differentiation was performed in 1% glacial acetic acid solution for 3 min. The solution was discarded, and the remaining stain was washed with distilled water.

[7] abbreviates: alendronate comparison study, 0.5 mg kg^−1, n = 6.

Molecules are shown by their SMILES.

In the case of `CC(C)C[C@H](NC(=O)[C@H](CCc1ccccc1)NC(=O)CN1CCOCC1)C(=O)N[C@@H](Cc1ccccc1)C(=O)N[C@@H](CC(C)C)C(=O)[C@@]1(C)CO1` [carfilzomib], the “effect on PROTAC-induced MDM2 proteolysis” value at MDM2 [1] is “blocked the efficacy of PROTAC in a dose‐dependent manner”.

As for `COc1ccc(C2=NC(c3ccc(Cl)cc3)C(c3ccc(Cl)cc3)N2C(=O)N2CCN(CC(=O)NCCCCCCCC#Cc3cccc4c3C(=O)N(C3CCC(=O)NC3=O)C4=O)C(=O)C2)c(OC(C)C)c1` (stereo not drawn) [CL174], in the data set with EGFP‐MDM2 (live imaging, 0.01 to 10 µM), the “concentration at which maximum degradation efficiency was achieved” value is recorded as 1 µM. In the data set on EGFP‐MDM2 (live imaging, treatment for 4 h), the “nuclear EGFP signal” value is “almost completely turned off the nuclear EGFP signal”. Further, on MDM2 [2], the “MDM2 degradation (western blot)” value is given as “effectively decreased MDM2 levels” and the “decrease in MDM2 levels compared to the basal level” value is given as “over 80%”. Besides, the “maximal degradation concentration (Dmax)” value at MDM2 [2] (quantified western blot, 1 nM to 50 µM, n = 2) turned out to be 0.5 μΜ. For the same compound, the DC50 on MDM2 [2] (quantified western blot, 1 nM to 50 µM, n = 2, read-out: half‐maximal degradation concentration (DC50)) is 60 nM. Further, the Kd (usually the free concentration of one partner at which half of the binding sites on the other are occupied at equilibrium, for simple one-to-one binding) on MDM2 [3] was 1270 nM.

Consider `COc1ccc(C2=N[C@@H](c3ccc(Cl)cc3)[C@@H](c3ccc(Cl)cc3)N2C(=O)N2CCN(CC(=O)NCCOCCOCCNC(=O)CN3CCN(C(=O)N4C(c5ccc(OC)cc5OC(C)C)=N[C@H](c5ccc(Cl)cc5)[C@@H]4c4ccc(Cl)cc4)CC3=O)C(=O)C2)c(OC(C)C)c1` [CL117], for which the “MDM2 degradation (western blot)” value at MDM2 [2] was “did not induce the degradation of MDM2”.

For the compound `COc1ccc(C2=N[C@H](c3ccc(Cl)cc3)[C@H](c3ccc(Cl)cc3)N2C(=O)N2CCN(CC(=O)OC(C)(C)C)C(=O)C2)c(OC(C)C)c1` [CL139], the “MDM2 degradation (western blot)” value at MDM2 [2] is reported as “did not induce the degradation of MDM2”.

Turning to `COc1ccc(C2=N[C@@H](c3ccc(Cl)cc3)[C@@H](c3ccc(Cl)cc3)N2C(=O)N2CCNC(=O)C2)c(OC(C)C)c1` [Nutlin-3, reference compound], in the data set on hBMSCs [4], the cell viability entry was “without adversely affecting cell viability”. Also, the “calcium deposits compared to the control group” value in the data set with hBMSCs [5] was “significantly increased”. In addition, in the data set with osteocalcin (OCN), the “osteocalcin (OCN) protein intensity compared to the control group” value is “no statistically significant difference”. For the same compound, in data set [6] (tibia and femur tissues), the “bone histology (H&E staining) versus OVX group” value is recorded as “no significant differences”.

Regarding `NCCCC(O)(P(=O)(O)O)P(=O)(O)O` [alendronate, reference compound], in data set [6] (setting [7]), the “increase in trabecular thickness (Tb.Th) relative to the OVX group” value was 17.07% and the “recovery in BV/TV relative to the OVX group” value is on record as 38.66%.

Take `COc1ccc(C2=N[C@H](c3ccc(Cl)cc3)[C@H](c3ccc(Cl)cc3)N2C(=O)N2CCN(CC(=O)NCCCCCCCCCCCOc3cccc4c3C(=O)N(C3CCC(=O)NC3=O)C4=O)C(=O)C2)c(OC(C)C)c1` (stereo partly drawn) [CL145]: the “decrease in MDM2 levels compared to the basal level” value on MDM2 [2] is “over 80%”.

In the case of `O=C1CCC(N2Cc3c(C#CCCCNC(=O)c4ccc(NC(=O)[C@@H]5NC6(CCCCC6)[C@@]6(C(=O)Nc7cc(Cl)ccc76)[C@H]5c5cccc(Cl)c5F)cc4)cccc3C2=O)C(=O)N1` (stereo partly drawn) [MD224, reference compound], the “degradation efficiency of EGFP‐MDM2 by concentration” value in the data set on EGFP‐MDM2 (low concentrations (0.01–0.1 µM) versus higher concentrations (1–10 µM)) is recorded as “greater degradation efficiency of EGFP‐MDM2 compared to higher concentrations”.

The record behind these values is article PMC12097015, “Development of MDM2‐Targeting PROTAC for Advancing Bone Regeneration” (Advanced Science, 2025).
